Reference: the NIST ThermoML archive (doi:10.1021/je0202073)

Tests used:
[1] = xn = mol fraction of the nth substance listed; conditions: 101.3 kPa, Liquid
[2] = excess molar enthalpy (molar enthalpy of mixing); xn = mol fraction of the nth substance listed; conditions: 101.3 kPa, Liquid, Calvet calorimetry

CCCC(=O)OCC [ethyl butanoate] + CC(C)(C)O
Conditions	excess molar enthalpy [kcal/mol]	excess molar volume [m3/mol]
[1], 303.15 K, x1 = 0.0445	–	9.2e-07
[1], 303.15 K, x1 = 0.0966	–	2.08e-06
[1], 303.15 K, x1 = 0.1518	–	3.11e-06
[1], 303.15 K, x1 = 0.1999	–	3.83e-06
[1], 303.15 K, x1 = 0.2466	–	4.41e-06
[1], 303.15 K, x1 = 0.3111	–	5.13e-06
[1], 303.15 K, x1 = 0.3504	–	5.6e-06
[1], 303.15 K, x1 = 0.4043	–	5.91e-06
[1], 303.15 K, x1 = 0.4468	–	6.09e-06
[1], 303.15 K, x1 = 0.4837	–	6.11e-06
[1], 303.15 K, x1 = 0.5015	–	6.11e-06
[1], 303.15 K, x1 = 0.5259	–	6.07e-06
[1], 303.15 K, x1 = 0.5538	–	5.99e-06
[1], 303.15 K, x1 = 0.6004	–	5.74e-06
[1], 303.15 K, x1 = 0.6399	–	5.5e-06
[1], 303.15 K, x1 = 0.663	–	5.23e-06
[1], 303.15 K, x1 = 0.7129	–	4.83e-06
[1], 303.15 K, x1 = 0.7538	–	4.33e-06
[1], 303.15 K, x1 = 0.7934	–	3.77e-06
[1], 303.15 K, x1 = 0.8465	–	2.99e-06
[1], 303.15 K, x1 = 0.9017	–	2e-06
[1], 303.15 K, x1 = 0.9614	–	8.2e-07
[1], 318.15 K, x1 = 0.0604	–	1.83e-06
[1], 318.15 K, x1 = 0.1099	–	2.85e-06
[1], 318.15 K, x1 = 0.1559	–	3.63e-06
[1], 318.15 K, x1 = 0.2141	–	4.45e-06
[1], 318.15 K, x1 = 0.265	–	5.17e-06
[1], 318.15 K, x1 = 0.2982	–	5.41e-06
[1], 318.15 K, x1 = 0.3386	–	5.74e-06
[1], 318.15 K, x1 = 0.39	–	6.14e-06
[1], 318.15 K, x1 = 0.4477	–	6.44e-06
[1], 318.15 K, x1 = 0.4595	–	6.5e-06
[1], 318.15 K, x1 = 0.4778	–	6.53e-06
[1], 318.15 K, x1 = 0.4982	–	6.55e-06
[1], 318.15 K, x1 = 0.4996	–	6.56e-06
[1], 318.15 K, x1 = 0.5163	–	6.56e-06
[1], 318.15 K, x1 = 0.5222	–	6.55e-06
[1], 318.15 K, x1 = 0.5936	–	6.38e-06
[1], 318.15 K, x1 = 0.6597	–	6.03e-06
[1], 318.15 K, x1 = 0.7011	–	5.73e-06
[1], 318.15 K, x1 = 0.745	–	5.15e-06
[1], 318.15 K, x1 = 0.7968	–	4.5e-06
[1], 318.15 K, x1 = 0.8396	–	3.81e-06
[1], 318.15 K, x1 = 0.8701	–	3.15e-06
[1], 318.15 K, x1 = 0.9283	–	2.01e-06
[2], 299.15 K, x1 = 0.0438	0.0602	–
[2], 299.15 K, x1 = 0.0937	0.123	–
[2], 299.15 K, x1 = 0.1461	0.186	–
[2], 299.15 K, x1 = 0.1991	0.249	–
[2], 299.15 K, x1 = 0.2541	0.296	–
[2], 299.15 K, x1 = 0.3061	0.337	–
[2], 299.15 K, x1 = 0.3568	0.37	–
[2], 299.15 K, x1 = 0.4053	0.393	–
[2], 299.15 K, x1 = 0.4331	0.405	–
[2], 299.15 K, x1 = 0.4818	0.416	–
[2], 299.15 K, x1 = 0.5387	0.419	–
[2], 299.15 K, x1 = 0.6024	0.409	–
[2], 299.15 K, x1 = 0.6746	0.381	–
[2], 299.15 K, x1 = 0.7522	0.331	–
[2], 299.15 K, x1 = 0.833	0.251	–
[2], 299.15 K, x1 = 0.9172	0.143	–
[2], 318.15 K, x1 = 0.0394	0.0701	–
[2], 318.15 K, x1 = 0.0951	0.138	–
[2], 318.15 K, x1 = 0.158	0.203	–
[2], 318.15 K, x1 = 0.2201	0.26	–
[2], 318.15 K, x1 = 0.2807	0.313	–
[2], 318.15 K, x1 = 0.3377	0.349	–
[2], 318.15 K, x1 = 0.385	0.376	–
[2], 318.15 K, x1 = 0.4267	0.392	–
[2], 318.15 K, x1 = 0.4576	0.404	–
[2], 318.15 K, x1 = 0.4628	0.405	–
[2], 318.15 K, x1 = 0.4938	0.412	–
[2], 318.15 K, x1 = 0.5386	0.415	–
[2], 318.15 K, x1 = 0.5934	0.41	–
[2], 318.15 K, x1 = 0.6595	0.387	–
[2], 318.15 K, x1 = 0.7407	0.336	–
[2], 318.15 K, x1 = 0.8336	0.249	–
[2], 318.15 K, x1 = 0.9223	0.136	–

CC(C)(C)O [2-methylpropan-2-ol] + CCOC(C)=O
Conditions	excess molar enthalpy [kcal/mol]	excess molar volume [m3/mol]
[1], 303.15 K, x2 = 0.0458	–	1.14e-06
[1], 303.15 K, x2 = 0.0972	–	2.65e-06
[1], 303.15 K, x2 = 0.1702	–	4.43e-06
[1], 303.15 K, x2 = 0.1982	–	4.99e-06
[1], 303.15 K, x2 = 0.2483	–	5.78e-06
[1], 303.15 K, x2 = 0.2718	–	6.12e-06
[1], 303.15 K, x2 = 0.3074	–	6.6e-06
[1], 303.15 K, x2 = 0.3613	–	7.08e-06
[1], 303.15 K, x2 = 0.3973	–	7.3e-06
[1], 303.15 K, x2 = 0.4626	–	7.52e-06
[1], 303.15 K, x2 = 0.5178	–	7.55e-06
[1], 303.15 K, x2 = 0.5274	–	7.54e-06
[1], 303.15 K, x2 = 0.5449	–	7.51e-06
[1], 303.15 K, x2 = 0.5624	–	7.48e-06
[1], 303.15 K, x2 = 0.5722	–	7.42e-06
[1], 303.15 K, x2 = 0.5885	–	7.35e-06
[1], 303.15 K, x2 = 0.5998	–	7.3e-06
[1], 303.15 K, x2 = 0.6022	–	7.27e-06
[1], 303.15 K, x2 = 0.6086	–	7.2e-06
[1], 303.15 K, x2 = 0.6124	–	7.17e-06
[1], 303.15 K, x2 = 0.6336	–	7.06e-06
[1], 303.15 K, x2 = 0.6501	–	6.87e-06
[1], 303.15 K, x2 = 0.7084	–	6.24e-06
[1], 303.15 K, x2 = 0.7732	–	5.29e-06
[1], 303.15 K, x2 = 0.8111	–	4.6e-06
[1], 303.15 K, x2 = 0.8533	–	3.72e-06
[1], 303.15 K, x2 = 0.8915	–	2.84e-06
[1], 303.15 K, x2 = 0.9686	–	8.6e-07
[1], 318.15 K, x2 = 0.0796	–	2.37e-06
[1], 318.15 K, x2 = 0.1377	–	3.7e-06
[1], 318.15 K, x2 = 0.1899	–	4.83e-06
[1], 318.15 K, x2 = 0.2558	–	6.14e-06
[1], 318.15 K, x2 = 0.2985	–	6.84e-06
[1], 318.15 K, x2 = 0.3703	–	7.44e-06
[1], 318.15 K, x2 = 0.4344	–	7.86e-06
[1], 318.15 K, x2 = 0.4633	–	7.93e-06
[1], 318.15 K, x2 = 0.5377	–	7.95e-06
[1], 318.15 K, x2 = 0.5626	–	7.87e-06
[1], 318.15 K, x2 = 0.6284	–	7.55e-06
[1], 318.15 K, x2 = 0.6913	–	7e-06
[1], 318.15 K, x2 = 0.767	–	5.96e-06
[1], 318.15 K, x2 = 0.8516	–	4.18e-06
[1], 318.15 K, x2 = 0.8891	–	3.61e-06
[1], 318.15 K, x2 = 0.9294	–	2.37e-06
[2], 299.15 K, x2 = 0.0546	0.0899	–
[2], 299.15 K, x2 = 0.1163	0.178	–
[2], 299.15 K, x2 = 0.181	0.263	–
[2], 299.15 K, x2 = 0.2456	0.332	–
[2], 299.15 K, x2 = 0.3079	0.385	–
[2], 299.15 K, x2 = 0.3672	0.422	–
[2], 299.15 K, x2 = 0.4207	0.445	–
[2], 299.15 K, x2 = 0.4707	0.459	–
[2], 299.15 K, x2 = 0.5157	0.464	–
[2], 299.15 K, x2 = 0.5541	0.462	–
[2], 299.15 K, x2 = 0.564	0.46	–
[2], 299.15 K, x2 = 0.6199	0.444	–
[2], 299.15 K, x2 = 0.68	0.413	–
[2], 299.15 K, x2 = 0.7438	0.365	–
[2], 299.15 K, x2 = 0.8091	0.299	–
[2], 299.15 K, x2 = 0.8769	0.212	–
[2], 299.15 K, x2 = 0.9385	0.117	–
[2], 318.15 K, x2 = 0.0538	0.0799	–
[2], 318.15 K, x2 = 0.1146	0.164	–
[2], 318.15 K, x2 = 0.1733	0.24	–
[2], 318.15 K, x2 = 0.2313	0.307	–
[2], 318.15 K, x2 = 0.2953	0.361	–
[2], 318.15 K, x2 = 0.3487	0.396	–
[2], 318.15 K, x2 = 0.3987	0.422	–
[2], 318.15 K, x2 = 0.4461	0.438	–
[2], 318.15 K, x2 = 0.4878	0.445	–
[2], 318.15 K, x2 = 0.5176	0.448	–
[2], 318.15 K, x2 = 0.5676	0.444	–
[2], 318.15 K, x2 = 0.6236	0.429	–
[2], 318.15 K, x2 = 0.6844	0.398	–
[2], 318.15 K, x2 = 0.7436	0.352	–
[2], 318.15 K, x2 = 0.8108	0.285	–
[2], 318.15 K, x2 = 0.8797	0.198	–
[2], 318.15 K, x2 = 0.9442	0.104	–
